The values below come from ChEMBL document CHEMBL4699511, “Cedrol, a Sesquiterpene Alcohol, Enhances the Anticancer Efficacy of Temozolomide in Attenuating Drug Resistance via Regulation of the DNA Damage Response and MGMT Expression” (J Nat Prod, 2020).

A short description of data set [1]: Effect of CD133 expression in human DBTRG-05MG cells at 112.4 uM after 48 hrs by Western blot analysis. Format: functional. (In general: In western blotting, separated proteins are transferred to a membrane and probed.)
Data set [2] deals with DBTRG-05MG. As to the kind of experiment: Induction of cell cycle arrest in human DBTRG-05MG cells assessed as accumulation at G0/G1 phase at 112.4 uM after 12 hrs in presence of TMZ by propidium iodide staining based flow cytometric analysis (reference value: 47.16 +/- 1.55%). Type of data set: functional. (In general: Flow cytometry measures light scatter and fluorescence of single cells or particles in a stream.)

Data set [3] concerns DBTRG-05MG. As to the kind of experiment: Synergistic cytotoxicity against human DBTRG-05MG cells assessed as synergistic effect index at 89.9 uM after 48 hrs in presence of 103 uM TMZ by MTT assay. Type of data set: functional. (Tetrazolium dyes change colour on reduction, which living cells bring about.)
Data set [4] concerns RG2. As to the kind of experiment: Synergistic cytotoxicity against rat RG2 cells assessed as combination index at 112.4 uM after 48 hrs in presence of 515.1 uM TMZ by MTT assay. Type of data set: functional.
Data set [5] deals with RG2. Kind of data set: Synergistic cytotoxicity against rat RG2 cells assessed as combination index at 134.9 uM after 48 hrs in presence of 309 uM TMZ by MTT assay. Format: functional.
Data set [6] can be described thus: Synergistic cytotoxicity against rat CTX TNA2 cells assessed as combination index at 112.4 uM after 48 hrs in presence of 103 uM TMZ by MTT assay. Format: cell-based. Particulars: ctx tna2, 48 h.
Data set [7] is described as follows: Effect on ERK expression in human DBTRG-05MG cells at 112.4uM after 48 hrs in presence of TMZ by Western blot analysis (reference value: 1). Type of data set: functional.
The nature of data set [8]: Effect on p38 expression in human DBTRG-05MG cells at 112.4uM after 48 hrs in presence of TMZ by Western blot analysis (reference value: 1). Format: functional.
Data set [9] can be described thus: Toxicity in BALB/c mouse xenografted with DBTRG-05MG cells assessed as inflammatory cell infiltration score in liver at 5 mg/kg, ip for 5 days by H and E staining-based bright field microscopic analysis. Format: organism-based. Particulars: in vivo, 120 h, time 5 day.
Data set [10] can be described thus: Synergistic cytotoxicity against rat CTX TNA2 cells assessed as combination index at 112.4 uM after 48 hrs in presence of 515.1 uM TMZ by MTT assay. Format: cell-based. The following applies: ctx tna2, 48 h.
Data set [11] relates to RG2. Kind of data set: Induction of cell cycle arrest in rat RG2 cells assessed as accumulation at S phase at 112.4 uM after 12 hrs by propidium iodide staining based flow cytometric analysis (reference value: 20.15 +/- 2.44%). Format: functional.
Data set [12] is described as follows: Inhibition of TMZ-induced drug resistance in human DBTRG-05MG cells assessed as MDR1 expression at 112.4 uM after 48 hrs by Western blot analysis (reference value: 1.5). Format: functional.
For data set [13], the system named is RG2. Kind of data set: Synergistic cytotoxicity against rat RG2 cells assessed as synergistic effect index at 112.4 uM after 48 hrs in presence of 412.1 uM TMZ by MTT assay. Type of data set: functional.
The subject of data set [14] is DBTRG-05MG. Kind of data set: Inhibition of ERK phosphorylation at Tyr204 residues in human DBTRG-05MG cells at 112.4uM after 48 hrs by Western blot analysis (reference value: 1). Format: cell-based.
In data set [15] the test system is DBTRG-05MG. As to the kind of experiment: Antitumour activity against human DBTRG-05MG cells xenografted in BALB/c nude mouse assessed as reduction in tumour growth at 75 mg/kg, sc for every 2 days for 20 days and measured every 2 days. Format: functional, organism-based. Particulars: time 20.0 day.
In data set [16] the test system is RG2. Kind of data set: Induction of apoptosis in rat RG2 cells assessed as cleaved caspace-3 expression at 112.4 uM after 48 hrs in presence of TMZ by Western blot analysis (reference value: 1). Type of data set: functional.
Data set [17] relates to RG2. As to the kind of experiment: Inhibition of TMZ-induced drug resistance in rat RG2 cells assessed as reduction in MGMT protein expression at 112.4 uM after 48 hrs by Immunohistochemistry method. Format: functional, cell-based.
Data set [18] relates to RG2. Kind of data set: Synergistic cytotoxicity against rat RG2 cells assessed as synergistic effect index at 112.4 uM after 48 hrs in presence of 103 uM TMZ by MTT assay. Type of data set: functional.
Data set [19] deals with DBTRG-05MG. As to the kind of experiment: Induction of apoptosis in human DBTRG-05MG cells assessed as phosphorylated PARP expression at 112.4 uM after 48 hrs by Western blot analysis (reference value: 1). Format: functional.
The subject of data set [20] is RG2. As to the kind of experiment: Induction of apoptosis in rat RG2 cells assessed as phosphorylated caspace-9 expression at 112.4 uM after 48 hrs in presence of TMZ by Western blot analysis (reference value: 1). Format: functional.
Data set [21] has as its system DBTRG-05MG. Kind of data set: Induction of cell cycle arrest in human DBTRG-05MG cells assessed as p53 expression at 112.4 uM after 48 hrs by Western blot analysis (reference value: 1). Format: functional.
Data set [22] relates to DBTRG-05MG. As to the kind of experiment: Potentiation of TMZ-induced antitumor activity against human DBTRG-05MG cells xenografted in BALB/c nude mouse assessed as reduction in MGMT expression at 75 mg/kg, sc co-treated with TMZ for 18 days by fluorescent immunocytochemistry method. The following applies: time 18.0 day. Type of data set: functional, organism-based.
The test system of data set [23] is RG2. Kind of data set: Induction of DNA damage in rat RG2 cells assessed as Chk1 phosphorylation at ser345 at 112.4 uM after 48 hrs by Western blot analysis (reference value: 1). Type of data set: functional.
For data set [24], the system named is DBTRG-05MG. As to the kind of experiment: Synergistic cytotoxicity against human DBTRG-05MG cells assessed as synergistic effect index at 112.4 uM after 48 hrs in presence of 515.1 uM TMZ by MTT assay. Type of data set: functional.
In data set [25] the test system is RG2. Kind of data set: Synergistic cytotoxicity against rat RG2 cells assessed as synergistic effect index at 89.9 uM after 48 hrs in presence of 309 uM TMZ by MTT assay. Type of data set: functional.
The subject of data set [26] is DBTRG-05MG. As to the kind of experiment: Induction of cell cycle arrest in human DBTRG-05MG cells assessed as accumulation at G0/G1 phase at 112.4 uM after 48 hrs in presence of TMZ by propidium iodide staining based flow cytometric analysis (reference value: 47.16 +/- 1.55%). Type of data set: functional.
Data set [27] has as its system DBTRG-05MG. Kind of data set: Induction of apoptosis in human DBTRG-05MG cells assessed as phosphorylated PARP expression at 112.4 uM after 48 hrs in presence of TMZ by Western blot analysis (reference value: 1). Format: functional.
Data set [28] can be described thus: Effect on JNK expression in human DBTRG-05MG cells at 112.4uM after 48 hrs in presence of TMZ by Western blot analysis (reference value: 1). Type of data set: functional.
Data set [29] has as its system RG2. Kind of data set: Induction of cell cycle arrest in rat RG2 cells assessed as accumulation at G2/M phase at 206 uM after 48 hrs by propidium iodide staining based flow cytometric analysis (reference value: 20.04 +/- 0.55%). Type of data set: functional.
In data set [30] the test system is DBTRG-05MG. As to the kind of experiment: Induction of cell cycle arrest in human DBTRG-05MG cells assessed as accumulation at G0/G1 phase at 206 uM after 48 hrs by propidium iodide staining based flow cytometric analysis (reference value: 47.16 +/- 1.55%). Format: functional.
Data set [31] deals with DBTRG-05MG. Kind of data set: Induction of cell cycle arrest in human DBTRG-05MG cells assessed as CyclinB1 expression at 206 uM after 48 hrs by Western blot analysis (reference value: 1). Type of data set: functional.
Data set [32] concerns RG2. Kind of data set: Induction of apoptosis in rat RG2 cells assessed as Bcl2 expression at 206 uM after 48 hrs by Western blot analysis (reference value: 1). Format: functional.
Data set [33] concerns RG2. As to the kind of experiment: Induction of cell cycle arrest in rat RG2 cells assessed as accumulation at S phase at 206 uM after 48 hrs by propidium iodide staining based flow cytometric analysis (reference value: 20.15 +/- 2.44%). Format: functional.
Data set [34] can be described thus: Effect on p38 expression in rat RG2 cells at 206 uM after 48 hrs by Western blot analysis (reference value: 1). Type of data set: functional.

The source made the active and inactive calls. The calls are words filed in the database; no cut-off is given here.

With `C[C@@H]1CC[C@H]2C(C)(C)[C@H]3C[C@@]12CC[C@@]3(C)O` [CEDROL], the “fold change (FC)” value in data set [1] was 1.5; in data set [7], 0.8; in data set [8], 0.8; in data set [12] it was 0.7; in data set [14], 0.9; in data set [16], 3.3. Also, the “fold change (FC)” value was found to be 0.7 in data set [19]; 0.4 in data set [20]; 0.9 in [21]; 1.1 in data set [23]; 0.4 in data set [27]; 0.4 in data set [28]. Further, the Activity in [2] amounted to 49.57%; in data set [9], 2.38; in data set [11], 16.92%; in data set [26], 41.16%. Further, the Activity_index was 0.66 in data set [3]; 0.84 in [13]; 0.83 in data set [18]; 0.85 in [24]; 0.72 in data set [25]. For the same compound, the CI in data set [4] is 1.06; in data set [5] it was 0.92; in data set [6], 1.24; in [10], 0.87. Further, the result in data set [15] and in data set [22] was Active. For the same compound, the inhibition entry in [17] was “Active”.

Take `Cn1nnc2c(C(N)=O)ncn2c1=O` [TEMOZOLOMIDE]: the Activity in data set [29] came to 54.71%; in [30] it was 22.95%; in data set [33], 18.32%. Also, the “fold change (FC)” value in data set [31] is listed as 1.4; in [32] it was 1.3; in data set [34], 0.7.
